Laboratory results from ChEMBL document CHEMBL2021893, “Synthesis, structure-activity relationship and in vitro anti-mycobacterial evaluation of 13-n-octylberberine derivatives” (2012).
Converted amounts (≈) assume the structure as drawn.

How the values were obtained:
Type in all cases: functional
[1] = tested on: Mycobacterium tuberculosis; test: Antimycobacterial activity against multidrug-resistant Mycobacterium tuberculosis isolate 44 from Chinese tuberculosis patient measured 24 hrs post dose by microplate alamar blue assay; details: isolate 44, 24 h
[2] = tested on: Mycobacterium tuberculosis; test: Antimycobacterial activity against multidrug-resistant Mycobacterium tuberculosis isolate 83 from Chinese tuberculosis patient measured 24 hrs post dose by microplate alamar blue assay; details: isolate 83, 24 h
[3] = tested on: Mycobacterium tuberculosis; test: Antimycobacterial activity against multidrug-resistant Mycobacterium tuberculosis isolate 164 from Chinese tuberculosis patient measured 24 hrs post dose by microplate alamar blue assay; details: isolate 164, 24 h
[4] = tested on: Mycobacterium tuberculosis; test: Antimycobacterial activity against multidrug-resistant Mycobacterium tuberculosis isolate 431 from Chinese tuberculosis patient measured 24 hrs post dose by microplate alamar blue assay; details: isolate 431, 24 h
[5] = tested on: Mycobacterium tuberculosis; test: Antimycobacterial activity against multidrug-resistant Mycobacterium tuberculosis isolate 926 from Chinese tuberculosis patient measured 24 hrs post dose by microplate alamar blue assay; details: isolate 926, 24 h

SMILES	MIC [1] [µg/mL]	MIC [2] [µg/mL]	MIC [3] [µg/mL]	MIC [4] [µg/mL]	MIC [5] [µg/mL]
NNC(=O)c1ccncc1 [ISONIAZID]	4 (≈ 29.2 µM)	4 (≈ 29.2 µM)	4 (≈ 29.2 µM)	64 (≈ 467 µM)	32 (≈ 233 µM)
CCCCCCCCc1c2[n+](cc3c(OCC)c(OC)ccc13)CCc1cc(OCC)c(OCC)cc1-2.[Cl-]	0.25	0.5	0.125	0.5	0.125
CCCCCCCCc1c2[n+](cc3c(OC)c(OC)ccc13)CCc1cc3c(cc1-2)OCO3.[Cl-]	4	4	4	4	
CCCCCCCCc1c2[n+](cc3c(OC)c(OC)ccc13)CCc1cc(OCC)c(OCC)cc1-2.[Cl-]	4	4	4		4
CO[C@H]1/C=C/O[C@@]2(C)Oc3c(C)c(O)c4c(O)c(c(/C=N/N5CCN(C)CC5)c(O)c4c3C2=O)NC(=O)/C(C)=C\C=C\[C@H](C)[C@H](O)[C@@H](C)[C@@H](O)[C@@H](C)[C@H](OC(C)=O)[C@@H]1C [RIFAMPIN]	64 (≈ 77.8 µM)	> 64	> 64	> 64	> 32
CCCCCCCCc1c2[n+](cc3c(OCc4ccccc4)c(OC)ccc13)CCc1cc(OCc3ccccc3)c(O)cc1-2.[Cl-]	0.5	1	1	0.25	0.5
